Measurements published in patent US20260144769A1, “4-PHENYLBUTYRATE RESTORED GABA UPTAKE AND REDUCED SEIZURES IN SLC6A1 VARIANT-MEDIATED DISORDERS” (Vanderbilt University, priority 2022, published 2026).

How the values were obtained:
[1] = system: wildtype GAT-1 + GAT-1 A288V; assay: 3H GABA uptake, HEK293T, mixture of wildtype and mutant cDNAs ("heterozygous"); assay type: cell-based, rat; details: wildtype:A288V cDNAs 1:1; PBA 2 mM, 24 hrs
Experimental: (§1) GABA uptake activity was measured by the high-throughput 3H radio-labeling GABA uptake on a liquid scintillator with QuantaSmart. […] HEK293T cells were transfected with the wildtype or the mutant GAT-1^YFP cDNAs alone for 48 hr. […] HEK293T cells were transfected with the wildtype GAT-1^YFP alone or in mixture of the wildtype or the mutant cDNAs for 48 hr. In the mixed condition, the ratio of the wildtype GAT-1 with pcDNA or the mutant cDNAs are 1:1 with the total cDNA amount of 0.5 μg. […] Both wt and the mutant were normalized to its own DMSO treated conditions. 966 stands for the wildtype treated with CI-966 (50 μM) while 711 stands for NNC-711 (35 μM). (N=4-7 different transfections. In FIG. 4A and FIG. 4B, *P<0.05, **P<0.01, ***p<0.001 vs. wt 0. In FIG. C and FIG. 4D, *P<0.05, **P<0.01, ***p<0.001 vs. its own DMSO treated. In FIG. 4C, ns stands for no significance. One-way analysis of variance (ANOVA) and Newman-Keuls test. Values were expressed as mean±S.E.M.
(§2) The plasmid cDNA encoding enhanced yellow fluorescent protein (EYFP)-tagged rat GAT-1 has been previously described. The coding region of rGAT-1 was inserted into pEYFP-C1 (Clontech, Palo Alto, CA). QuikChange Site-directed Mutagenesis kit was utilized to introduce the GAT-1 variants into a wildtype GAT-1 plasmid. The product was then amplified via polymerase chain reaction, transformed using DH5a competent cells, and plated. A clone was chosen and grown overnight. All the GAT-1 variants were confirmed by DNA sequencing. Both the wildtype and the variant cDNAs were prepared with Qiagen Maxiprep kit.
(§3) Human embryonic kidney cells were cultured as monolayers in 100 mm^2 dishes. Cells were cultured in Dulbecco's Modified Eagle's Medium supplemented with 10% FBS and 1% penicillin/streptomycin in 37° C. in 5% CO2/95% air. Cells were maintained in culture medium until appropriate confluency for experimentation.
(§4) Briefly, cells were cultured in […] dishes for 3 days before the GABA uptake experiment in DMEM with 10% fetal bovine serum and 1% penicillin/streptomycin. The cells were then transfected with equal amounts of the wildtype or the mutant GAT-1 cDNAs (1 μg) for each condition at 24 hrs or 48 hrs after plating. GABA uptake assay was carried out 48 hrs after transfection. The cells were incubated with preincubation solution for 15 min and then incubated with preincubation solution containing 1 μci/mL 3H GABA and 10 μM unlabeled GABA for 30 min at room temperature. After washing, the cells were lysed with 0.25 N NaOH for 1 hr. Glacial acetic acid was added, and lysates were then determined on a liquid scintillator with QuantaSmart. The flux of GABA (pmol/μg/min) was averaged with at least triplets for each condition at each transfection. The average counting was taken as n=1. The untransfected condition was taken as a baseline that was subtracted from both the wildtype and the mutant conditions. The pmol/μg/min in the mutant was then normalized to the wildtype from each experiment, which was arbitrarily taken as 100%. The protocols for GABA reuptake assay in cultured mouse astrocytes, neuron or iPSC derived cells were modified from the GABA uptake protocol on HEK 293T cells. GAT-1 inhibitors CL-966 and NNC-711 were applied each time to make sure the radioactive counts were specific.
(§5) The working solution was stored at 4° C.

[2] = system: wildtype GAT-1 + GAT-1 D410E; assay: as above; assay type: cell-based, rat; details: wildtype:D410E cDNAs 1:1; PBA 2 mM, 24 hrs
Experimental: as §1, §2, §3, §4, §5

[3] = system: wildtype GAT-1 + GAT-1 L460R; assay: as above; assay type: cell-based, rat; details: wildtype:L460R cDNAs 1:1; PBA 2 mM, 24 hrs
Experimental: as §1, §2, §3, §4, §5

[4] = system: wildtype GAT-1 + GAT-1 S295L; assay: as above; assay type: cell-based, rat; details: wildtype:S295L cDNAs 1:1; PBA 2 mM, 24 hrs
Experimental: as §1, §2, §3, §4, §5

[5] = system: wildtype GAT-1 + GAT-1 V125M; assay: as above; assay type: cell-based, rat; details: wildtype:V125M cDNAs 1:1; PBA 2 mM, 24 hrs
Experimental: as §1, §2, §3, §4, §5

[6] = system: wildtype GAT-1 + GAT-1 W495X; assay: as above; assay type: cell-based, rat; details: wildtype:W495X cDNAs 1:1; PBA 2 mM, 24 hrs
Experimental: as §1, §2, §3, §4, §5

neural progenitor cells = assay: GABA uptake in neural progenitor cells; assay type: cell-based; details: NPCs; data not shown
Experimental: NPCs were differentiated from iPSCs at passage 22-24 with differentiation of neural progenitor cells (NPCs) was induced by STEMdiff SMADi Neural induction kit from […]. iPSCs were seeded in a Geltrex coated dish at a density of ˜2×10^6 cells/per one 35 mm^2 dish or 6 well plate. The medium was refreshed daily, and the cells were passaged at day 5-7. NPCs at Passage 1 which was at least 10-12 days after neural induction were used for this study.
Briefly, cells were cultured in […] dishes for 3 days before the GABA uptake experiment in DMEM with 10% fetal bovine serum and 1% penicillin/streptomycin. The cells were then transfected with equal amounts of the wildtype or the mutant GAT-1 cDNAs (1 μg) for each condition at 24 hrs or 48 hrs after plating. GABA uptake assay was carried out 48 hrs after transfection. The cells were incubated with preincubation solution for 15 min and then incubated with preincubation solution containing 1 μci/mL 3H GABA and 10 μM unlabeled GABA for 30 min at room temperature. After washing, the cells were lysed with 0.25 N NaOH for 1 hr. Glacial acetic acid was added, and lysates were then determined on a liquid scintillator with QuantaSmart. The flux of GABA (pmol/μg/min) was averaged with at least triplets for each condition at each transfection. The average counting was taken as n=1. […]

SLC6A1 gene expression = assay: RT-qPCR of SLC6A1 gene expression, mouse whole-brain tissue; assay type: in vivo; details: wild-type and SLC6A1^+/S295L mice; PBA for 7 days; whole-brain RNA
From the text: FIGS. 14A-B show RT-qPCR data from a cohort of nine wild-type mice (FIG. 14A) and seven SLC6A1^+/S295L mice (FIG. 14B). […] Total RNA was extracted from mouse whole-brain tissue.

[7] = cited from earlier work

O=C(O)CCCc1ccccc1 [PBA, 4-phenylbutyric acid]
GABA uptake normalized to its own DMSO treated condition [1]: 1.248±0.053
GABA uptake normalized to its own DMSO treated condition [2]: 1.17±0.035
GABA uptake normalized to its own DMSO treated condition [3]: 1.214±0.037
GABA uptake normalized to its own DMSO treated condition [4]: 1.318±0.062
GABA uptake normalized to its own DMSO treated condition [5]: 1.33±0.05
GABA uptake normalized to its own DMSO treated condition [6]: 1.305±0.0296
GABA uptake in neural progenitor cells after PBA treatment (neural progenitor cells): increase
SLC6A1 gene expression, treated vs. untreated mice (SLC6A1 gene expression): no significant difference
oral bioavailability [7]: orally bioavailable
